Data as given in patent US10766865B2, “PKM2 modulators and methods for their use” (TOLERO PHARMACEUTICALS, INC., priority 2012, dated 2020).
Read-outs that look alike come from different tables or passages of the source.

Target: PKM2 (Homo sapiens, UniProt P14618)
Assay: PKM2 Biochemical Assay
Details: for Max. Resp.: % maximum response in a biochemical assay as compared with Fructose 1,6-bisphosphate

Chain of PKM2 (P14618 whole entry): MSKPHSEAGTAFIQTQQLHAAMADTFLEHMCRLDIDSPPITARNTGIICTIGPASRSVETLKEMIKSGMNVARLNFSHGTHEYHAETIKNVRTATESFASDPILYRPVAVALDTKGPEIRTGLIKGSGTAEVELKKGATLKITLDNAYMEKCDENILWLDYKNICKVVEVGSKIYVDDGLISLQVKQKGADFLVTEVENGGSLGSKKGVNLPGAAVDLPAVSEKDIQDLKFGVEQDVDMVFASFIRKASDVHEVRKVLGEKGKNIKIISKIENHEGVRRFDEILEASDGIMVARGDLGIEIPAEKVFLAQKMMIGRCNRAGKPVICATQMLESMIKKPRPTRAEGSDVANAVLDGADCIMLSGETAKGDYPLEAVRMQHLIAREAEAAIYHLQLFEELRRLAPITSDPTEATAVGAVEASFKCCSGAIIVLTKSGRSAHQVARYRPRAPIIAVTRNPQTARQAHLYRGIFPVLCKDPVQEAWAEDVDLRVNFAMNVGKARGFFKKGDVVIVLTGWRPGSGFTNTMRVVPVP

Row | Compound | Max. Resp. [%] | also measured
1 | O=C(c1cc(Br)n[nH]1)N(CCC1CCS(=O)(=O)CC1)Cc1ccccc1F [Example 83] | 98 | 
2 | O=C(c1cc(C(F)(F)F)n[nH]1)N(CCC1CCSCC1)Cc1c(F)cccc1F [Example 84] | 73 | 
3 | O=C(c1cc(C(F)(F)F)n[nH]1)N(CCC1CCS(=O)(=O)CC1)Cc1c(F)cccc1F [Example 85] | 100 | 
4 | O=C(c1cc(C(F)(F)F)n[nH]1)N(CCC1CCSCC1)Cc1ccc(O)cc1F [Example 86] | 98 | 
5 | O=C(c1cc(C(F)(F)F)n[nH]1)N(CCC1CCS(=O)(=O)CC1)Cc1ccc(O)cc1F [Example 87] | 100 | 
6 | O=C(c1cc(C(F)(F)F)n[nH]1)N(CCC1CCS(=O)(=O)C1)Cc1ccccn1 (centres unmarked) [Example 88] | 96 | 
7 | O=C(c1cc(C(F)(F)F)n[nH]1)N(CCC1CCS(=O)(=O)C1)Cc1ccncc1 (centres unmarked) [Example 89] | 35 | 
8 | O=C(c1cc(C(F)(F)F)n[nH]1)N(CCC1CCS(=O)(=O)C1)Cc1cccnc1 (centres unmarked) [Example 90] | 24 | 
9 | O=C(c1cc(C(F)(F)F)n[nH]1)N(CCC1CCS(=O)(=O)C1)Cc1cncs1 (centres unmarked) [Example 93] | 26 | 
10 | O=C(c1cc(C(F)(F)F)n[nH]1)N(CCC1CCS(=O)(=O)C1)Cc1cccc([N+](=O)[O-])c1Cl (centres unmarked) [Example 94, N-(2-chloro-3-nitrobenzyl)-N-(2-(1,1-dioxidotetrahydrothiophen-3-yl)ethyl)-3-(trifluoromethyl)-1H-pyrazole-5-carboxamide] | 69 | 
11 | CCN1CCC(CCN(Cc2c(Cl)cccc2Cl)C(=O)c2cc(C(F)(F)F)n[nH]2)CC1 [Example 105] | 71 | 
12 | CCN1CCN(CCN(Cc2ccccc2F)C(=O)c2cc(C(F)(F)F)n[nH]2)CC1 [Example 106] | 115 | 
13 | O=C(c1cc(C(F)(F)F)n[nH]1)N(CCN1CCS(=O)(=O)CC1)Cc1ccccc1F [Example 108] | 92 | 
14 | O=C(c1cc(C(F)(F)F)n[nH]1)N(CCN1CCS(=O)(=O)CC1)Cc1c(F)cccc1F [Example 109] | 94 | 
15 | O=C(c1cc(C(F)(F)F)n[nH]1)N(CCN1CCS(=O)(=O)CC1)Cc1c(Cl)cccc1Cl [Example 110] | 84 | 
16 | O=C(c1cc(C(F)(F)F)n[nH]1)N(CCN1CCS(=O)(=O)CC1)Cc1cccc(F)c1F [Example 111] | 64 | 
17 | Nc1cccc(CN(CCN2CCS(=O)(=O)CC2)C(=O)c2cc(C(F)(F)F)n[nH]2)c1 [Example 112] | 91 | 
18 | CC[C@](C)(N)C(=O)Oc1ccc(CN(CC2CCC2)C(=O)c2cc(Cl)n[nH]2)c(F)c1 [Example 115, (S)-4-((3-chloro-N-(cyclobutylmethyl)-1H-pyrazole-5-carboxamido)methyl)-3-fluorophenyl 2-amino-2-methylbutanoate] | 104 | 
19 | CN(C)Cc1c[nH]c2cccc(CN(CC3CCC3)C(=O)c3cc(Cl)n[nH]3)c12 [Example 118, 3-CHLORO-N-(CYCLOBUTYLMETHYL)-N-((3-((DIMETHYLAMINO)METHYL)-1H-INDOL-4-YL)METHYL)-1H-PYRAZOLE-5-CARBOXAMIDE] | 100 | 
20 | O=C(c1cc(Br)n[nH]1)N(Cc1cccc2[nH]cnc12)CC1CCC1 [Example 120, N-((1H-benzo[d]imidazol-4-yl)methyl)-3-bromo-N-(cyclobutylmethyl)-1H-pyrazole-5-carboxamide] | 100 | AC50 (read-out: PKM2 AC50, 2 nM PKM2, 75 μM ADP, 15 μM PEP, Kinase Glo): 1.33 µM
21 | O=C(c1cc(C(F)(F)F)n[nH]1)N(CCC(F)(F)F)Cc1ccc(O)cc1F [Example 130, N-(2-fluoro-4-hydroxybenzyl)-3-(trifluoromethyl)-N-(3,3, trifluoropropyl)-1H-pyrazole-5-carboxamide] | 100 | 
22 | CC(C)(O)CCN(Cc1ccc(O)cc1F)C(=O)c1cc(C(F)(F)F)n[nH]1 [Example 131, N-(2-fluoro-4-hydroxybenzyl)-3-(trifluoromethyl)-N-(3-hydroxy-3-methylbutyl)-1H-pyrazole-5-carboxamide] |  | AC50: 23 µM
23 | O=C(c1cc(C(F)(F)F)n[nH]1)N(Cc1ccc(O)cc1F)C1CCCC1 [Example 132, N-(2-fluoro-4-hydroxybenzyl)-N-cyclopentyl-3-(trifluoromethyl)-1H-pyrazole-5-carboxamide] | 100 | 
24 | NCCN(Cc1ccc(O)cc1F)C(=O)c1cc(C(F)(F)F)n[nH]1 [Example 133, N-(2-fluoro-4-hydroxybenzyl)-N-(2-aminoethyl)-3-(trifluoromethyl)-1H-pyrazole-5-carboxamide] | 100 | 
25 | O=C(c1cc(C(F)(F)F)n[nH]1)N(CCO)Cc1ccc(O)cc1F [Example 137, N-(2-fluoro-4-hydroxybenzyl)-3-(trifluoromethyl)-N-(2-hydroxyethyl)-1H-pyrazole-5-carboxamide] | 70 | 
26 | O=C(c1cc(C(F)(F)F)n[nH]1)N(Cc1ccc(O)cc1F)C1CCCCC1 [Example 139, N-(2-fluoro-4-hydroxybenzyl)-N-cyclohexyl-3-(trifluoromethyl)-1H-pyrazole-5-carboxamide] | 100 | 
27 | COCCN(Cc1ccc(O)cc1F)C(=O)c1cc(C(F)(F)F)n[nH]1 [Example 142, N-(2-fluoro-4-hydroxybenzyl)-3-(trifluoromethyl)-N-(2-methoxyethyl)-1H-pyrazole-5-carboxamide] | 100 | 
28 | CCN(CC)CCN(Cc1ccc(O)cc1F)C(=O)c1cc(C(F)(F)F)n[nH]1 [Example 143, N-(2-fluoro-4-hydroxybenzyl)-N-(2-(diethylamino)ethyl)-3-(trifluoromethyl)-1H-pyrazole-5-carboxamide] | 100 | 

Now from value to molecule, other results behind:

Row | Max. Resp. [%] | Compound | also measured
29 | 74 | O=C(c1cc(C(F)(F)F)n[nH]1)N(CCC1CCS(=O)(=O)C1)Cc1ncccc1Cl (centres unmarked) [Example 92] | 
30 | 56 | O=C(c1cc(C(F)(F)F)n[nH]1)N(CCC1CCNCC1)Cc1ccccc1F [Example 98] | 
31 | 100 | CS(=O)(=O)N1CCC(CCN(Cc2ccccc2F)C(=O)c2cc(C(F)(F)F)n[nH]2)CC1 [Example 99] | 
32 | 29 | CN1CCC(CN(Cc2ccccc2F)C(=O)c2cc(C(F)(F)F)n[nH]2)CC1 [Example 100] | 
33 | 42 | CN1CCN(CCN(Cc2ccccc2F)C(=O)c2cc(C(F)(F)F)n[nH]2)CC1 [Example 103] | 
34 | 63 | CN1CCN(CCN(Cc2ccccc2Cl)C(=O)c2cc(C(F)(F)F)n[nH]2)CC1 [Example 104] | 
35 | 85 | O=C(c1cc(C(F)(F)F)n[nH]1)N(CCN1CCS(=O)(=O)CC1)Cc1ccccc1Cl [Example 107] | 
36 | 100 | O=C(c1cc(Cl)n[nH]1)N(Cc1cccc2[nH]cnc12)CC1CCC1 [Example 119, N-((1H-benzo[d]imidazol-4-yl)methyl)-3-chloro-N-(cyclobutylmethyl)-1H-pyrazole-5-carboxamide] | 
37 | 100 | O=C(c1cc(C(F)(F)F)n[nH]1)N(Cc1cccc2[nH]cnc12)CC1CCC1 [Example 123, N-((1H-benzo[d]imidazol-4-yl)methyl)-N-(cyclobutylmethyl)-3-(trifluoromethyl)-1H-pyrazole-5-carboxamide] | 
38 | 100 | O=C(c1cc(C(F)(F)F)n[nH]1)N(Cc1ccc(O)cc1Cl)CC1CCC1 [Example 124, N-(2-chloro-4-hydroxybenzyl)-N-(cyclobutylmethyl)-3-(trifluoromethyl)-1H-pyrazole-5-carboxamide] | 
39 | 100 | O=C(c1cc(Br)n[nH]1)N(Cc1ccc(O)cc1Cl)CC1CCC1 [Example 125, N-(2-chloro-4-hydroxybenzyl)-3-bromo-N-(cyclobutylmethyl)-1H-pyrazole-5-carboxamide] | 
40 | 100 | O=C(c1cc(C(F)(F)F)n[nH]1)N(Cc1ccccc1Cl)CC1CCC1 [Example 127, N-(2-chlorobenzyl)-N-(cyclobutylmethyl)-3-(trifluoromethyl)-1H-pyrazole-5-carboxamide] | 
41 | 75 | O=C(c1cc(C(F)(F)F)n[nH]1)N(Cc1ccncc1Cl)CC1CCC1 [Example 128, N-((3-chloropyridin-4-yl)methyl)-N-(cyclobutylmethyl)-3-(trifluoromethyl)-1H-pyrazole-5-carboxamide] | 
42 | 100 | Nc1ccc(CN(CC2CCC2)C(=O)c2cc(C(F)(F)F)n[nH]2)c(Cl)c1 [Example 134, N-(4-amino-2-chlorobenzyl)-N-(cyclobutylmethyl)-3-(trifluoromethyl)-1H-pyrazole-5-carboxamide] | 
43 | 100 | O=C(c1cc(C(F)(F)F)n[nH]1)N(Cc1cccc2[nH]ccc12)NC1CCC1 [Example 135, N-((1H-INDOL-4-YL)METHYL)-N′-CYCLOBUTYL-3-(TRIFLUOROMETHYL)-1H-PYRAZOLE-5-CARBOHYDRAZIDE] | 
44 | 100 | O=C(c1cc(C(F)(F)F)n[nH]1)N(Cc1cccc(F)c1O)CC1CCC1 [Example 136, N-(3-fluoro-2-hydroxybenzyl)-N-(cyclobutylmethyl)-3-(trifluoromethyl)-1H-pyrazole-5-carboxamide] | 
45 | 100 | O=C(c1cc(C(F)(F)F)n[nH]1)N(CCC1CC1)Cc1ccc(O)cc1F [Example 140, N-(2-fluoro-4-hydroxybenzyl)-N-(2-cyclopropylethyl)-3-(trifluoromethyl)-1H-pyrazole-5-carboxamide] | 
46 | 100 | O=C(c1cc(C(F)(F)F)n[nH]1)N(Cc1cccc(Cl)c1O)CC1CCC1 [Example 141, N-(3-chloro-2-hydroxybenzyl)-N-(cyclobutylmethyl)-3-(trifluoromethyl)-1H-pyrazole-5-carboxamide] | 
47 | 100 | CCN(CC)CCN(Cc1ccccc1F)C(=O)c1cc(C(F)(F)F)n[nH]1 [Example 148, N-(2-fluorobenzyl)-N-(2-(diethylamino)ethyl)-3-(trifluoromethyl)-1H-pyrazole-5-carboxamide] | 
48 | 100 | O=C(c1cc(C(F)(F)F)n[nH]1)N(CCC1CC1)Cc1ccccc1F [Example 149, N-(2-fluorobenzyl)-N-(2-cyclopropylethyl)-3-(trifluoromethyl)-1H-pyrazole-5-carboxamide] | 
49 | 68 | O=C(c1cc(C(F)(F)F)n[nH]1)N(Cc1ccccc1F)CC1CCOC1 (centres unmarked) [Example 150, N-(2-fluorobenzyl)-3-(trifluoromethyl)-N-((tetrahydrofuran-3-yl)methyl)-1H-pyrazole-5-carboxamide] | 
